Results as given in ChEMBL document CHEMBL1201862, “PubChem BioAssay data set” (2004).
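Results reflect a 48-hour exposure of cells in 96-well plates to compound at five concentrations. The concentration for 50% growth inhibition is given as GI50.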 Calls of active or inactive are those of the source. No stated cut-off is given here; in the data, active = GI50 up to about 1.1 µM and inactive = higher.

Tests used:
Assay in all cases: growth of human tumour cells (NCI), 48 h
PC-3 = tested on: PC-3
KM12 = tested on: KM12
IGROV-1 = tested on: IGROV-1
SK-MEL-5 = tested on: SK-MEL-5
SK-MEL-28 = tested on: SK-MEL-28
SF-539 = tested on: SF-539
SK-MEL-2 = tested on: SK-MEL-2
MDA-N = tested on: MDA-N
BT-549 = tested on: BT-549
RXF 393 = tested on: RXF 393
HOP-62 = tested on: HOP-62
UACC-257 = tested on: UACC-257
SK-OV-3 = tested on: SK-OV-3
MCF7 = tested on: MCF7
SNB-19 = tested on: SNB-19
SF-268 = tested on: SF-268
A498 = tested on: A498
SW-620 = tested on: SW-620
SR = tested on: SR
MOLT-4 = tested on: MOLT-4
TK-10 = tested on: TK-10
UACC-62 = tested on: UACC-62
LOX IMVI = tested on: LOX IMVI
ACHN = tested on: ACHN
T47D = tested on: T47D
CAKI-1 = tested on: CAKI-1
CCRF-CEM = tested on: CCRF-CEM
DU-145 = tested on: DU-145
U-251 = tested on: U-251
M14 = tested on: M14
SN12C = tested on: SN12C
A549 = tested on: A549
HOP-92 = tested on: HOP-92
MDA-MB-231 = tested on: MDA-MB-231
OVCAR-8 = tested on: OVCAR-8
HCT-15 = tested on: HCT-15
SNB-75 = tested on: SNB-75
Hs-578T = tested on: Hs-578T
COLO 205 = tested on: COLO 205
OVCAR-3 = tested on: OVCAR-3
NCI-H23 = tested on: NCI-H23
Malme-3M = tested on: Malme-3M
OVCAR-5 = tested on: OVCAR-5
UO-31 = tested on: UO-31
SF-295 = tested on: SF-295
NCI-H522 = tested on: NCI-H522
OVCAR-4 = tested on: OVCAR-4
EKVX = tested on: EKVX
HT-29 = tested on: HT-29
786-0 = tested on: 786-0
NCI-H460 = tested on: NCI-H460
MDA-MB-435 = tested on: MDA-MB-435
RPMI-8226 = tested on: RPMI-8226
HCT-116 = tested on: HCT-116
K562 = tested on: K562
NCI/ADR-RES = tested on: NCI/ADR-RES
NCI-H226 = tested on: NCI-H226

CC(C)(C)c1ccc(O)c(CN(Cc2cc(C(C)(C)C)ccc2O)c2ccccc2)c1 was tested, and the GI50 (PC-3) was 17.9 µM (inactive), the GI50 (KM12) was 22.2 µM (inactive) and the GI50 (IGROV-1) was 21.1 µM (inactive). For the same compound, the GI50 (SK-MEL-5) was 15.1 µM (inactive), the GI50 (SK-MEL-28) was 17.5 µM (inactive) and the GI50 (SF-539) was 17.6 µM (inactive). The GI50 (SK-MEL-2) was 17.6 µM (inactive), the GI50 (MDA-N) was 16.6 µM (inactive) and the GI50 (BT-549) was 21 µM (inactive). The GI50 (RXF 393) was 13.6 µM (inactive), the GI50 (HOP-62) was 20.8 µM (inactive) and the GI50 (UACC-257) was 2.48 µM (inactive). For the same compound, the GI50 (SK-OV-3) was 29.4 µM (inactive), the GI50 (MCF7) was 18.8 µM (inactive) and the GI50 (SNB-19) was 16.4 µM (inactive). The GI50 (SF-268) was 17.6 µM (inactive), the GI50 (A498) was 14.8 µM (inactive) and the GI50 (SW-620) was 18.5 µM (inactive). The GI50 (SR) was 16 µM (inactive), the GI50 (MOLT-4) was 15.6 µM (inactive) and the GI50 (TK-10) was 17.1 µM (inactive). For the same compound, the GI50 (UACC-62) was 14.7 µM (inactive), the GI50 (LOX IMVI) was 13.7 µM (inactive) and the GI50 (ACHN) was 16.6 µM (inactive). For the same compound, the GI50 (T47D) was 15.8 µM (inactive), the GI50 (CAKI-1) was 31.8 µM (inactive) and the GI50 (CCRF-CEM) was 32.4 µM (inactive). The GI50 (DU-145) was 19.1 µM (inactive), the GI50 (U-251) was 15.1 µM (inactive) and the GI50 (M14) was 14.4 µM (inactive). For the same compound, the GI50 (SN12C) was 17.7 µM (inactive), the GI50 (A549) was 17.5 µM (inactive) and the GI50 (HOP-92) was 16.2 µM (inactive). For the same compound, the GI50 (MDA-MB-231) was 16.9 µM (inactive), the GI50 (OVCAR-8) was 19.1 µM (inactive) and the GI50 (HCT-15) was 18.3 µM. The GI50 (SNB-75) was 18.7 µM (inactive), the GI50 (Hs-578T) was 18.6 µM (inactive) and the GI50 (COLO 205) was 17.1 µM (inactive). The GI50 (OVCAR-3) was 15.6 µM (inactive), the GI50 (NCI-H23) was 21.1 µM (inactive) and the GI50 (Malme-3M) was 15.8 µM (inactive). For the same compound, the GI50 (OVCAR-5) was 16.1 µM (inactive), the GI50 (UO-31) was 14.4 µM (inactive) and the GI50 (SF-295) was 17.5 µM (inactive). For the same compound, the GI50 (NCI-H522) was 13.3 µM (inactive), the GI50 (OVCAR-4) was 19.2 µM (inactive) and the GI50 (EKVX) was 16.5 µM (inactive). The GI50 (HT-29) was 18.3 µM (inactive), the GI50 (786-0) was 16.6 µM (inactive) and the GI50 (NCI-H460) was 16.5 µM (inactive). For the same compound, the GI50 (MDA-MB-435) was 16.2 µM (inactive), the GI50 (RPMI-8226) was 16.7 µM (inactive) and the GI50 (HCT-116) was 19.4 µM (inactive). The GI50 (K562) was 11.6 µM (inactive) and the GI50 (NCI/ADR-RES) was 19.1 µM (inactive).

For O=C(O)C1NCCc2c1[nH]c1ccccc21 (stereo unspecified), the GI50 (PC-3) was > 10 µM (inactive), the GI50 (MDA-N) was > 10 µM (inactive) and the GI50 (BT-549) was > 10 µM (inactive). For the same compound, the GI50 (RXF 393) was > 10 µM (inactive), the GI50 (HOP-62) was > 10 µM (inactive) and the GI50 (MCF7) was > 10 µM (inactive). For the same compound, the GI50 (T47D) was > 10 µM (inactive), the GI50 (DU-145) was > 10 µM (inactive) and the GI50 (MDA-MB-231) was > 10 µM (inactive). For the same compound, the GI50 (Hs-578T) was > 10 µM (inactive), the GI50 (MDA-MB-435) was > 10 µM (inactive) and the GI50 (RPMI-8226) was > 10 µM (inactive). For the same compound, the GI50 (NCI/ADR-RES) was > 10 µM (inactive).

For COC1OC2COC(c3ccccc3)OC2C(O)C1OC(=S)c1ccccc1 (stereo unspecified), the GI50 (PC-3) was 18.3 µM (inactive), the GI50 (IGROV-1) was 32.4 µM (inactive) and the GI50 (SK-MEL-5) was 23 µM (inactive). For the same compound, the GI50 (SK-MEL-28) was 26.9 µM (inactive), the GI50 (SF-539) was 35.2 µM (inactive) and the GI50 (SK-MEL-2) was 53.3 µM (inactive). The GI50 (MDA-N) was 27.3 µM (inactive), the GI50 (BT-549) was 53.1 µM (inactive) and the GI50 (RXF 393) was 41.4 µM (inactive). The GI50 (HOP-62) was 30.8 µM (inactive), the GI50 (UACC-257) was 50 µM (inactive) and the GI50 (SK-OV-3) was > 100 µM (inactive). The GI50 (MCF7) was 36.3 µM (inactive), the GI50 (SNB-19) was > 100 µM (inactive) and the GI50 (NCI-H226) was 46.1 µM (inactive). For the same compound, the GI50 (SF-268) was > 100 µM (inactive), the GI50 (A498) was 40.5 µM (inactive) and the GI50 (SW-620) was 45.3 µM (inactive). The GI50 (SR) was 42.9 µM (inactive), the GI50 (MOLT-4) was 70.6 µM (inactive) and the GI50 (TK-10) was 62.5 µM (inactive). For the same compound, the GI50 (UACC-62) was 31 µM (inactive), the GI50 (LOX IMVI) was 0.244 µM (active) and the GI50 (ACHN) was 24.3 µM (inactive). The GI50 (T47D) was 14.9 µM (inactive), the GI50 (CAKI-1) was 24.4 µM (inactive) and the GI50 (CCRF-CEM) was 19.9 µM (inactive). For the same compound, the GI50 (DU-145) was 97.3 µM (inactive), the GI50 (U-251) was 0.188 µM (active) and the GI50 (M14) was 46.2 µM (inactive). For the same compound, the GI50 (SN12C) was 21.8 µM (inactive), the GI50 (A549) was 0.607 µM (active) and the GI50 (HOP-92) was > 100 µM (inactive). The GI50 (MDA-MB-231) was 36.7 µM (inactive), the GI50 (OVCAR-8) was 67.8 µM (inactive) and the GI50 (HCT-15) was 28.4 µM. For the same compound, the GI50 (Hs-578T) was 62.1 µM (inactive), the GI50 (COLO 205) was 16.7 µM (inactive) and the GI50 (OVCAR-3) was 34.8 µM (inactive). The GI50 (NCI-H23) was 59.7 µM (inactive), the GI50 (Malme-3M) was 21.2 µM (inactive) and the GI50 (OVCAR-5) was > 100 µM (inactive). The GI50 (UO-31) was 61.4 µM (inactive), the GI50 (SF-295) was 39.3 µM (inactive) and the GI50 (OVCAR-4) was 73.6 µM (inactive). For the same compound, the GI50 (EKVX) was 19.5 µM (inactive), the GI50 (HT-29) was 20.5 µM (inactive) and the GI50 (NCI-H460) was 28.6 µM (inactive). For the same compound, the GI50 (MDA-MB-435) was 1.31 µM (inactive), the GI50 (RPMI-8226) was 15.5 µM (inactive) and the GI50 (K562) was 53.3 µM (inactive). The GI50 (NCI/ADR-RES) was 36.6 µM (inactive).
